Experimental data reported in ChEMBL document CHEMBL4825673, “Total and Semisyntheses of Polymyxin Analogues with 2-Thr or 10-Thr Modifications to Decipher the Structure-Activity Relationship and Improve the Antibacterial Activity” (J Med Chem, 2021).
In brackets after ≈: the same amount, converted by molar mass. Positions of bridges follow the written chain, without caps; N, C: chain ends. Non-standard residues stand in square brackets, D forms with d. Residues, ends and D or L forms follow the SMILES beside them. *: point of attachment. Benzoyl(4-Ph) = O=C(c1ccc(-c2ccccc2)cc1)*; Dab = NCC[C@H](N)C(=O)O

Key:
Acinetobacter baumannii [1] = experiment: Antibacterial activity against Acinetobacter baumannii ABA15-4 assessed as inhibition of bacterial growth incubated for 24 hrs by broth microdilution method; format: functional; conditions: read-out: MIC100
Escherichia coli [2] = experiment: Antibacterial activity against Escherichia coli ECO-14-2 assessed as inhibition of bacterial growth incubated for 24 hrs by broth microdilution method; format: functional; conditions: read-out: MIC100
Acinetobacter baumannii [3] = experiment: Antibacterial activity against Acinetobacter baumannii ABA15-5 assessed as inhibition of bacterial growth incubated for 24 hrs by broth microdilution method; format: functional; conditions: read-out: MIC100
Acinetobacter baumannii [4] = experiment: Antibacterial activity against Acinetobacter baumannii AR15-4 assessed as inhibition of bacterial growth incubated for 24 hrs by broth microdilution method; format: functional; conditions: read-out: MIC100
Acinetobacter baumannii [5] = experiment: Antibacterial activity against Acinetobacter baumannii assessed as inhibition of bacterial growth incubated for 24 hrs by broth microdilution method; format: functional; conditions: read-out: MIC100
Pseudomonas aeruginosa [6] = experiment: Antibacterial activity against Pseudomonas aeruginosa PAE15-3 assessed as inhibition of bacterial growth incubated for 24 hrs by broth microdilution method; format: functional; conditions: read-out: MIC100
Pseudomonas aeruginosa [7] = experiment: Antibacterial activity against Pseudomonas aeruginosa PAE15-14 assessed as inhibition of bacterial growth incubated for 24 hrs by broth microdilution method; format: functional; conditions: read-out: MIC100
Moraxella catarrhalis [8] = experiment: Antibacterial activity against Moraxella catarrhalis assessed as inhibition of bacterial growth incubated for 24 hrs by broth microdilution method; format: functional; conditions: read-out: MIC100
Klebsiella pneumoniae [9] = experiment: Antibacterial activity against Klebsiella pneumoniae KPN+14-10 assessed as inhibition of bacterial growth incubated for 24 hrs by broth microdilution method; format: functional; conditions: read-out: MIC100
Pseudomonas aeruginosa [10] = experiment: Antibacterial activity against Pseudomonas aeruginosa PAO1 assessed as inhibition of bacterial growth incubated for 24 hrs by broth microdilution method; format: functional; conditions: read-out: MIC100
Klebsiella pneumoniae [11] = experiment: Antibacterial activity against Klebsiella pneumoniae assessed as inhibition of bacterial growth incubated for 24 hrs by broth microdilution method; format: functional; conditions: read-out: MIC100
Pseudomonas aeruginosa [12] = experiment: Antibacterial activity against Pseudomonas aeruginosa PR15-1 assessed as inhibition of bacterial growth incubated for 24 hrs by broth microdilution method; format: functional; conditions: read-out: MIC100
Klebsiella pneumoniae [13] = experiment: Antibacterial activity against Klebsiella pneumoniae KR15-2 assessed as inhibition of bacterial growth incubated for 24 hrs by broth microdilution method; format: functional; conditions: read-out: MIC100
Acinetobacter baumannii [14] = experiment: Antibacterial activity against Acinetobacter baumannii ABA15-6 assessed as inhibition of bacterial growth incubated for 24 hrs by broth microdilution method; format: functional; conditions: read-out: MIC100
Escherichia coli [15] = experiment: Antibacterial activity against Escherichia coli ECO+14-3 assessed as inhibition of bacterial growth incubated for 24 hrs by broth microdilution method; format: functional; conditions: read-out: MIC100
Escherichia coli [16] = experiment: Antibacterial activity against Escherichia coli ECO+14-2 assessed as inhibition of bacterial growth incubated for 24 hrs by broth microdilution method; format: functional; conditions: read-out: MIC100
Pseudomonas aeruginosa [17] = experiment: Antibacterial activity against Pseudomonas aeruginosa PAE15-8 assessed as inhibition of bacterial growth incubated for 24 hrs by broth microdilution method; format: functional; conditions: read-out: MIC100
Pseudomonas aeruginosa [18] = experiment: Antibacterial activity against Pseudomonas aeruginosa assessed as inhibition of bacterial growth incubated for 24 hrs by broth microdilution method; format: functional; conditions: read-out: MIC100
Klebsiella pneumoniae [19] = experiment: Antibacterial activity against Klebsiella pneumoniae KPN+14-8 assessed as inhibition of bacterial growth incubated for 24 hrs by broth microdilution method; format: functional; conditions: read-out: MIC100
Moraxella catarrhalis [20] = experiment: Antibacterial activity against Moraxella catarrhalis BCA15-3 assessed as inhibition of bacterial growth incubated for 24 hrs by broth microdilution method; format: functional; conditions: read-out: MIC100
Pseudomonas aeruginosa [21] = experiment: Antibacterial activity against Pseudomonas aeruginosa ATCC 27853 assessed as inhibition of bacterial growth incubated for 24 hrs by broth microdilution method; format: functional; conditions: read-out: MIC100
Pseudomonas aeruginosa [22] = experiment: Antibacterial activity against Pseudomonas aeruginosa PAE15-5 assessed as inhibition of bacterial growth incubated for 24 hrs by broth microdilution method; format: functional; conditions: read-out: MIC100
Moraxella catarrhalis [23] = experiment: Antibacterial activity against Moraxella catarrhalis BCA14-7 assessed as inhibition of bacterial growth incubated for 24 hrs by broth microdilution method; format: functional; conditions: read-out: MIC100
Escherichia coli [24] = experiment: Antibacterial activity against Escherichia coli assessed as inhibition of bacterial growth incubated for 24 hrs by broth microdilution method; format: functional; conditions: read-out: MIC100
HK-2 = experiment: Cytotoxicity against human HK-2 cells assessed as cell viability incubated for 72 hrs by CCK-8 assay; format: cell-based; conditions: hk-2, 72 h

MIC (Acinetobacter baumannii [1]) [µg/mL] | MIC (Escherichia coli [2]) [µg/mL] | MIC (Acinetobacter baumannii [3]) [µg/mL] | MIC (Acinetobacter baumannii [4]) [µg/mL] | MIC (Acinetobacter baumannii [5]) [µg/mL] | MIC (Pseudomonas aeruginosa [6]) [µg/mL] | MIC (Pseudomonas aeruginosa [7]) [µg/mL] | MIC (Moraxella catarrhalis [8]) [µg/mL] | MIC (Klebsiella pneumoniae [9]) [µg/mL] | MIC (Pseudomonas aeruginosa [10]) [µg/mL] | MIC (Klebsiella pneumoniae [11]) [µg/mL] | MIC (Pseudomonas aeruginosa [12]) [µg/mL] | MIC (Klebsiella pneumoniae [13]) [µg/mL] | MIC (Acinetobacter baumannii [14]) [µg/mL] | MIC (Escherichia coli [15]) [µg/mL] | MIC (Escherichia coli [16]) [µg/mL] | MIC (Pseudomonas aeruginosa [17]) [µg/mL] | MIC (Pseudomonas aeruginosa [18]) [µg/mL] | MIC (Klebsiella pneumoniae [19]) [µg/mL] | MIC (Escherichia coli [24]) [µg/mL] | SMILES | also measured
0.5 (≈ 0.409 µM) | 0.5 (≈ 0.409 µM) | 0.25 (≈ 0.204 µM) | 0.25 (≈ 0.204 µM) | 0.25 (≈ 0.204 µM) | 0.5 (≈ 0.409 µM) | 0.5 (≈ 0.409 µM) | 8 (≈ 6.54 µM) | 2 (≈ 1.63 µM) | 2 (≈ 1.63 µM) | 1 (≈ 0.817 µM) | 0.5 (≈ 0.409 µM) | 1 (≈ 0.817 µM) | 0.5 (≈ 0.409 µM) | 0.5 (≈ 0.409 µM) | 1 (≈ 0.817 µM) | 0.5 (≈ 0.409 µM) | 0.25 (≈ 0.204 µM) | 4 (≈ 3.27 µM) | 0.5 (≈ 0.409 µM) | CCCCCc1ccc(CN[C@@H](CCN)C(=O)N[C@H](C(=O)N[C@@H](CCN)C(=O)N[C@H]2CCNC(=O)[C@H]([C@@H](C)O)NC(=O)[C@H](CCN)NC(=O)[C@H](CCN)NC(=O)[C@H](CC(C)C)NC(=O)[C@@H](Cc3ccccc3)NC(=O)[C@H](CCN)NC2=O)[C@@H](C)O)cc1 | MIC (Moraxella catarrhalis [20]): 1 µg/mL (≈ 0.817 µM); MIC (Pseudomonas aeruginosa [21]): 0.25 µg/mL (≈ 0.204 µM); MIC (Pseudomonas aeruginosa [22]): 0.5 µg/mL (≈ 0.409 µM); MIC (Moraxella catarrhalis [23]): 8 µg/mL (≈ 6.54 µM)
0.06 (≈ 0.0483 µM) | 0.5 (≈ 0.402 µM) | 0.06 (≈ 0.0483 µM) | 0.06 (≈ 0.0483 µM) | 0.06 (≈ 0.0483 µM) | 0.5 (≈ 0.402 µM) | 0.125 (≈ 0.101 µM) | 8 (≈ 6.43 µM) | 2 (≈ 1.61 µM) | 4 (≈ 3.22 µM) | 2 (≈ 1.61 µM) | 5 (≈ 4.02 µM) | 2 (≈ 1.61 µM) | 0.125 (≈ 0.101 µM) | 1 (≈ 0.804 µM) | 2 (≈ 1.61 µM) | 0.125 (≈ 0.101 µM) | 0.06 (≈ 0.0483 µM) | 4 (≈ 3.22 µM) | 0.5 (≈ 0.402 µM) | CC(C)C[C@@H]1NC(=O)[C@@H](Cc2ccccc2)NC(=O)[C@H](CCN)NC(=O)[C@@H](NC(=O)[C@H](CCN)NC(=O)[C@@H](NC(=O)[C@H](CCN)NC(=O)c2ccc(-c3ccccc3)cc2)[C@@H](C)O)CCNC(=O)[C@H]([C@@H](C)O)NC(=O)[C@H](CCN)NC(=O)[C@H](CCN)NC1=O ({Benzoyl(4-Ph)}-[Dab]T[Dab][Dab][Dab][dF]L[Dab][Dab]T; lactam 4-C) | MIC (Moraxella catarrhalis [20]): 1 µg/mL (≈ 0.804 µM); MIC (Pseudomonas aeruginosa [21]): 0.06 µg/mL (≈ 0.0483 µM); MIC (Pseudomonas aeruginosa [22]): 0.125 µg/mL (≈ 0.101 µM); MIC (Moraxella catarrhalis [23]): 16 µg/mL (≈ 12.9 µM)
– | – | – | – | 0.06 (≈ 0.0486 µM) | – | – | 2 (≈ 1.62 µM) | – | 4 (≈ 3.24 µM) | 2 (≈ 1.62 µM) | – | – | – | – | – | – | 0.25 (≈ 0.202 µM) | – | 2 (≈ 1.62 µM) | CCCCCCCC(=O)N[C@@H](CCN)C(=O)N[C@H](C(=O)N[C@@H](CCN)C(=O)N[C@H]1CCNC(=O)[C@H](Cc2ccccc2)NC(=O)[C@H](CCN)NC(=O)[C@H](CCN)NC(=O)[C@H](CC(C)C)NC(=O)[C@@H](Cc2ccccc2)NC(=O)[C@H](CCN)NC1=O)[C@@H](C)O | Activity (HK-2): Non-Toxic
